Experimental data from US20170128467A1, “ANTIMICROBIAL PHARMACEUTICAL COMPOSITIONS WITH MULTIPLE DRUG RESISTANCE INHIBITING PROPERTIES” (priority 2014, published 2017).

Experiments:
[1] = tested on: Bacillus subtilis cells; experiment: Growth inhibition assay in liquid medium, B. subtilis; format: cell-based; conditions: for antimicrobial activity (growth inhibition): gram-positive
Procedure: (§1) Growing in the liquid medium method was selected as the method to test antibacterial activity of SkQ1. Overnight bacterial cells cultures were diluted in fresh LB media. Bacterial cell culture (5×10^6 cells/ml) were inoculated 200 μl into 96-well plates (Eppendorf, Eppendorf AG, Hamburg, Germany) and SkQ1 or CnTPP were added to reach various final concentrations in the range from 0.5 to 200 μM. Cells were left to grow for 21 hours at 37° C. Optical density at 600 nm was measured using an AnthosZenyth 3100 multimode reader (Anthos Labtec, Austria) during incubation.
(§2) We selected Ecsherishia coli cells as a Gram-negative model organism and Bacillus subtilis cells as a Gram-positive model organism. SkQ1 was selected as a model compound of formula 1 with antioxidant moiety. To select a proper concentration of a compound of formula 1 we performed growth inhibition assays for several SkQ1 concentrations (see FIGS. 8 A and B). It can be concluded from the results of this experiment that 1 μM SkQ1 is the minimal inhibitory concentration (MIC) for B. subtilis cells.

[2] = tested on: ΔTolC (JW5503); experiment: Growth inhibition assay, TolC deletion mutant; format: cell-based, Escherichia coli K-12; conditions: for IMPOSSIBILITY OF GROWTH: ΔTolC
Procedure: as §1
(§3) In this experiment we have tested whether To1C-dependent transporter is responsible for resistance of E. coli's cells to SkQ1. In the experiment we used single-gene knockout mutants from Keio collection [Baba T., et al., (2006)]. Construction of Escherichia coli K-12 in-frame, single-gene knockout mutants: the Keio collection. Mol. Syst. Biol. 2, 2006.0008.]. […] We used other knockout mutants of genes encoding proteins of transporters that require To1C for their function. […] In contrast, deletion of genes acrA or acrB dramatically changed the sensitivity of E. coli's cells to SkQ1.
Table 1. Results of growth inhibition assay for deletion mutants of genes encoding To1C-required efflux pumps proteins. Deletion strains JW5503 (devoid of the to1C gene), JW0452 (devoid of the acrA gene), JW0451 (devoid of the acrB gene), JW2454 (devoid of the acrD gene), JW3233 (devoid of the acrE gene), JW3234 (devoid of the acrF gene), JW5338 (devoid of the mdtA gene), JW2060 (devoid of the mdtB gene), JW2061 (devoid of the mdtC gene), JW3481 (devoid of the mdtE gene), and JW3482 (devoid of the mdtF gene) have been described in Baba T., et al., (2006). Construction of Escherichia coli K-12 in-frame, single-gene knockout mutants: the Keio collection. Mol. Syst. Biol. 2, 2006.0008.

[3] = tested on: E. coli; experiment: Growth inhibition assay in liquid medium, E. coli; format: cell-based, Escherichia coli
Procedure: as §1, §2

[4] = biological target: T1, AcrAB-To1C transporter (Escherichia coli, UniProt P31224); experiment: Ethidium bromide accumulation experiment; format: cell-based; conditions: SkQ1 50 μM; ethidium bromide 20 μg/ml
T1 construct: endogenous in cells
T1 sequence (P0AE06 25-397): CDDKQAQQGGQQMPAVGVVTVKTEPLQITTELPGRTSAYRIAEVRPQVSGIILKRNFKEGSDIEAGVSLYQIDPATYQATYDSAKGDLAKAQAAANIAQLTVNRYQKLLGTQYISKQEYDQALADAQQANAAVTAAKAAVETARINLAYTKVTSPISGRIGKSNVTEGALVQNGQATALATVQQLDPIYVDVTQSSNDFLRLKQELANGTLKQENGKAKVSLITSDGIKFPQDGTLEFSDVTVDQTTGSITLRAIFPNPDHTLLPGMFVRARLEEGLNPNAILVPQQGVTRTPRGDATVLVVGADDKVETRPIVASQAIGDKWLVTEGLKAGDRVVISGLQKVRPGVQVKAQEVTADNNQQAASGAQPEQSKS
T1 sequence (P02930 23-493, further chain): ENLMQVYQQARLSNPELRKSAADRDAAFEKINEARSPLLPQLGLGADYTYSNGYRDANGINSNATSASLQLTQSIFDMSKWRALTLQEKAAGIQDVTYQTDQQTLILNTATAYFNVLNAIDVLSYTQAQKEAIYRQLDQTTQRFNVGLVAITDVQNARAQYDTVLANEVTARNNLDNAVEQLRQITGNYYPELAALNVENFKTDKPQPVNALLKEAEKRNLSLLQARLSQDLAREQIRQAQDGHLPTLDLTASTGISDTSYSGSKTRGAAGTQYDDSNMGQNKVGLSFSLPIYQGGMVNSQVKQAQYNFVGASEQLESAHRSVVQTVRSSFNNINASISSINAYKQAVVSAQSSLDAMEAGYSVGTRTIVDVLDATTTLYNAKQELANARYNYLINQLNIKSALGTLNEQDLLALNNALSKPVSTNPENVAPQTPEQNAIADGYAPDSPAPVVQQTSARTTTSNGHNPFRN
T1 sequence (P31224 whole entry): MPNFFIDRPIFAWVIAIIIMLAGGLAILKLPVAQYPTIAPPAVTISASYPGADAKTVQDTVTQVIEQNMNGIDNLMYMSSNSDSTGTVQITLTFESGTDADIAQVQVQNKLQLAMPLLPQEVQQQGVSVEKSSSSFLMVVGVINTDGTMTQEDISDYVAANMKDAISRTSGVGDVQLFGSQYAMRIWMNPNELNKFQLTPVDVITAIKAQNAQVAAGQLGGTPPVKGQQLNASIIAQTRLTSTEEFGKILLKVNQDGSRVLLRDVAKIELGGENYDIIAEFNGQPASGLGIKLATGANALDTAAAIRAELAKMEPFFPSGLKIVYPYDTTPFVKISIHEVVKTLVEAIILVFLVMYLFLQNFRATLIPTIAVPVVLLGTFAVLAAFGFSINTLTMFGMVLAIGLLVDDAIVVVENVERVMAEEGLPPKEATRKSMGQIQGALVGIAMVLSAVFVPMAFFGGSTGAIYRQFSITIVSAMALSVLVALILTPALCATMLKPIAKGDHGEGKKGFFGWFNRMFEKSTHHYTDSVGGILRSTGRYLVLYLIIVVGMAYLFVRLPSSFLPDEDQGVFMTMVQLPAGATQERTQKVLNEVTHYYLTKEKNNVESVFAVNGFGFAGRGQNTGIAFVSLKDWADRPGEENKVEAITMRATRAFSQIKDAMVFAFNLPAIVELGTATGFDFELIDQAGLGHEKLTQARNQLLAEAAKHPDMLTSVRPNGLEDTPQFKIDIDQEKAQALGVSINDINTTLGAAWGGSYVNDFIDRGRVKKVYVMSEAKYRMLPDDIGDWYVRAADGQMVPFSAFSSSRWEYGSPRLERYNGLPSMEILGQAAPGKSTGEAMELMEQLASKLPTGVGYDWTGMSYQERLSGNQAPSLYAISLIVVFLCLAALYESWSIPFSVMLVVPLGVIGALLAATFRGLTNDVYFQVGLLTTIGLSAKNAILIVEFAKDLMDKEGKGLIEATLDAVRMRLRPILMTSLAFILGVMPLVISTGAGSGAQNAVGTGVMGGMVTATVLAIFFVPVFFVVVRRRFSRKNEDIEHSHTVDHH
Procedure: For emulation of cell membrane leakage, bacterial cells were resuspended in deionized water. Ethidium bromide was added (20 μg/ml) and the change of fluorescence intensity was recorded on Fluorat-02-Panorama. For detecting of the accumulation of ethidium bromide, SkQ1 was added to a concentration of 50 μM.
To confirm whether AcrAB-To1C is the appropriate transporter, we used a test based on the measurement of ethidium bromide leakage through intact bacterial membranes. […] Bacterial cells were prepared and resuspended in PBS. For emulation of cell membrane leakage bacterial cells were resuspended in deionized water (Milli-Q water purification system, EMD Millipore, Billerica, Mass.). Ethidium bromide was added (20 μg/ml) and the change of fluorescence intensity was recorded on Fluorat-02-Panorama (Lumex Instruments, Russia) spectrofluorometer. For increasing the accumulation of ethidium bromide, SkQ1 was added to reach a concentration of 50 μM. […] We observed ethidium bromide accumulation when ethidium bromide concentration was 40-times less than MIC for E. coli cells that only can be the result of collateral action of SkQ1 and ethidium bromide as substrates for AcrAB-To1C transporter.

[5] = biological target: T2, MDR pumps (Pdr5p) of yeast cells (Saccharomyces cerevisiae, UniProt P33302); format: cell-based; conditions: 2 μM compound
T2 construct: We measured the efflux of R6G from intact yeast cells using fluorometric method; endogenous in cells; host or cells: S. cerevisiae W303-1A (WT); AD1-8 as MDR-negative control
T2 sequence (P33302 whole entry): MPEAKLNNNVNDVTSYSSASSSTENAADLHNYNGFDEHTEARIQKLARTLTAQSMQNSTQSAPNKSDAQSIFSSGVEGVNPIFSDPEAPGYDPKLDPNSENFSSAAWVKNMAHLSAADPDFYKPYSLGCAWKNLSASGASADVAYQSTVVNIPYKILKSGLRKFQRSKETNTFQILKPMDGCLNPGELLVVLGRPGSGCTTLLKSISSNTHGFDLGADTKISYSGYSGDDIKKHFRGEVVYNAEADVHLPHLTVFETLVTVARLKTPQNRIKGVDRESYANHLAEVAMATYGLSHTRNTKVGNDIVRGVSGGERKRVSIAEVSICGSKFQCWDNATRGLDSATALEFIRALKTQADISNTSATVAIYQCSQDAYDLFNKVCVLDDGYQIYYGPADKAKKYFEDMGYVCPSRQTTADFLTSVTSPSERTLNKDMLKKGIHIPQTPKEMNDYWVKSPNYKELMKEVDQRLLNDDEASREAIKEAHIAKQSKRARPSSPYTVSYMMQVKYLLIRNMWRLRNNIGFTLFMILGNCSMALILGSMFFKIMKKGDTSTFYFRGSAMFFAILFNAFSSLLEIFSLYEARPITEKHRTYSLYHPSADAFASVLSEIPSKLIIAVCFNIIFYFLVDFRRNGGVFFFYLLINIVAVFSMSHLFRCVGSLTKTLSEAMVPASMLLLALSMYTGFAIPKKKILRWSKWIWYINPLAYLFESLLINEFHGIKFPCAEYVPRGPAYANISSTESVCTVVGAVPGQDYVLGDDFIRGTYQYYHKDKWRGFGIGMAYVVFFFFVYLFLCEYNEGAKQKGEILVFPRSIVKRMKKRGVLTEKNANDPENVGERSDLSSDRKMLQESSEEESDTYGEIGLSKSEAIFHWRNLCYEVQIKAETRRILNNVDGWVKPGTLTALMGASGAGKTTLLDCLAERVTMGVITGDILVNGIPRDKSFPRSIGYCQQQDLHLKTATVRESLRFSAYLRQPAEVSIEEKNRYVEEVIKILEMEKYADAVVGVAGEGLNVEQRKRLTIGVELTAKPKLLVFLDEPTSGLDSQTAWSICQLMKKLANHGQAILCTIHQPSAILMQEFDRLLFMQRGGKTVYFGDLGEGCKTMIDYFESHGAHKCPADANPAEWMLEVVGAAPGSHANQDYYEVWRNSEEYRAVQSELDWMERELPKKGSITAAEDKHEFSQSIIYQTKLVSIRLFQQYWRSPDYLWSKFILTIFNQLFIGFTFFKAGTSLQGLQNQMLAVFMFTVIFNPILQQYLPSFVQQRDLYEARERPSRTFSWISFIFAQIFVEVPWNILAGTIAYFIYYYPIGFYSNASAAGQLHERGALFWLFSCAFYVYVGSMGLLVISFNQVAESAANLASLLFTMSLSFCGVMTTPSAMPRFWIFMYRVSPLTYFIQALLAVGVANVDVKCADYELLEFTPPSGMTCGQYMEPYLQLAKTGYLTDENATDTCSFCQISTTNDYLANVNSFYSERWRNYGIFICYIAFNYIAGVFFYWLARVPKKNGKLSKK
Procedure: The ordinate corresponds to the ratio of slopes in a and b.
To measure the relative rate of rhodamine 6G efflux we used fluorometric assay implemented by Kolaczkowsky et al., with few modifications. Cells were grown overnight in 40 ml in liquid YPD to density of 0.5-1*10^7 cells/ml, washed twice with cold sterile water and resuspended in 10 ml phosphate buffer saline supplemented with 5 mM 2-deoxyglucose and 2.5 mM 2,4-dinitrophenol. Cell suspension was incubated for 45 minutes on a rotatory shaker, then the inhibitors were removed by two cycles of centrifugation/resuspension in cold water. The energy deprived cells were resuspended in 10 ml of PBS and then stained with R6G (10 μM) for 30 minutes. Then cell suspension was pelleted, resuspended in equal volume of PBS and stored on ice for 1-5 hours. The measurements of efflux were performed with FluoroMax-3 fluorometer system with exication wavelength set to 480 nm, and emission wavelength set to 560 nm. The R6G efflux was initiated by addition of 0.1% glucose, cell density in fluorometric cuvette was 10^6 cells/ml.

[6] = tested on: S. cerevisiae W303-1A and PGAL-PDR5, PGAL-SNQ2, PGAL-YOR1 strains; experiment: Survival assay (CFU) of yeast treated with C12TPP or SkQ1; format: cell-based, Saccharomyces cerevisiae; conditions: galactose-grown cells, 3 hours treatment
Source text: FIG. 1A show the chemical structure of dodecyltriphenylphosphonium C12TPP and its plastoquinone derivative (SkQ1) used in this study.
In this example, we used W303-1A S. cerevisiae strains and its derivatives: AD1-8 with deletions of eight MDR genes [W303-1A, yor1::hisG, snq2::hisG, pdr5:shisG, pdr10::hisG, pdr11::hisG, ycf1::hisG, pdr3::hisG, pdr15::hisG][4]□, PGAL-PDR5 [W303-1A HIS3::PGAL-PDR5], PGAL-SNQ2 [W303-1A HIS3::PGAL-SNQ2], and […] [W303-1AHIS3::PGAL-YOR1](this study). Cells were grown in YPD medium (2% glucose, 1% bactopeptone, 1% yeast extract), or in YPGal (2% galactose, 1% bactopepton, 1% yeast extract). For genetic screening and maintenance of strains with conditionally expressed genes synthetic drop-out media YNB-Leu or YNB-His were used according to Sherman 2000 [5]. The growth rates were measured by increase of light scattering (λ=550 nm) in liquid yeast culture.
Exponentially grown cells were taken and treated with indicated amounts of C12TPP or SKQ1 for 3 hours. Then cell suspensions were plated on solid YPD medium and incubated for 48 hours, the number of formed colonies were counted. 100% refers to the number of colony forming units (CFU) in yeast suspension at the beginning of experiment.

[7] = tested on: ΔAcrA (JW0452); experiment: Growth inhibition assay, AcrA deletion mutant; format: cell-based, Escherichia coli K-12
Procedure: as §1, §3
(§4) Table 1. Results of growth inhibition assay for deletion mutants of genes encoding To1C-required efflux pumps proteins. […]

[8] = tested on: ΔAcrB (JW0451); experiment: Growth inhibition assay, AcrB deletion mutant; format: cell-based, Escherichia coli K-12
Procedure: as §1, §3, §4

CCCCCCCC[P+](c1ccccc1)(c1ccccc1)c1ccccc1 [C8TPP, octyltriphenylphosphonium]
antimicrobial activity (growth inhibition) [1]: have antimicrobial activity
antimicrobial activity (growth inhibition) ([2]; To1C-deletion mutant): have antimicrobial activity

CC1=C(C)C(=O)C(CCCCCCCCCC[P+](c2ccccc2)(c2ccccc2)c2ccccc2)=CC1=O [SkQ1, plastoquinonildecyltriphenylphosphonium]
MIC ([1]; Bacillus subtilis, LB media, 37° C., read-out: minimal inhibitory concentration (MIC)): 1 µM
antimicrobial activity (growth inhibition) [1]: strong antimicrobial activity
growth inhibition at 1 μM ([3]; 1 μM SkQ1): did not inhibit significantly growth
MIC ([3]; Escherichia coli, LB media, 37° C., read-out: minimal inhibitory concentration (MIC)): 50 µM
antimicrobial activity (growth inhibition) ([3]; gram-negative): mild antimicrobial activity
ethidium bromide leakage through bacterial membranes (accumulation) [4]: comparable to ethidium bromide leakage during osmotic shock
substrate of AcrAB-To1C transporter [4]: is a substrate for AcrAB-To1C transporter
inhibition of glucose-induced R6G efflux from yeast cells [5]: much more efficient
inhibition of glucose-induced R6G efflux from yeast cells pretreated with NaN3 ([5]; cells pretreated with 10 mM NaN3): inhibits glucose-induced R6G efflux
resistance of cells (survival) under overexpression of MDR pump genes [6]: did not observe any effect of MDR overexpression
MBC ([2]; Escherichia coli, read-out: minimal bactericidal concentration): ~2 µM
IMPOSSIBILITY OF GROWTH ([2]; 5 μM): YES
IMPOSSIBILITY OF GROWTH ([2]; 30 μM): YES
IMPOSSIBILITY OF GROWTH ([7]; 5 μM): YES
IMPOSSIBILITY OF GROWTH ([7]; 30 μM): YES
IMPOSSIBILITY OF GROWTH ([8]; 5 μM): YES
IMPOSSIBILITY OF GROWTH ([8]; 30 μM): YES

CC1=C(C)C(=O)C(CCCCCCCCCC[P+](c2ccccc2)(c2ccccc2)c2ccccc2)=C(C)C1=O [SkQ3]
antimicrobial activity (growth inhibition) [1]: have antimicrobial activity

CC1=C(C)C(=O)C(CCCCC[P+](c2ccccc2)(c2ccccc2)c2ccccc2)=CC1=O [SkQ5]
antimicrobial activity (growth inhibition) [1]: have antimicrobial activity

CC1=CC(=O)C(CCCCCCCCCC[P+](c2ccccc2)(c2ccccc2)c2ccccc2)=CC1=O [SkQT-para]
antimicrobial activity (growth inhibition) [1]: have antimicrobial activity
